Test results from patent publication US20230053473A1, “ENHANCING EXPRESSION OF LINE-1 ENCODED ORF2P FOR CANCER THERAPEUTICS” (The Johns Hopkins University, priority 2019, published 2023).

Experiments:
[1] = system: HeLa cells; assay: FANCD2 nuclear foci quantification in EdU-labeled HeLa cells; type: cell-based; details: S phase (EdU+) cells; p=1.7×10^−8
Procedure: (§1) We used either Tet-On TP53^KD cells expressing Luciferase or LINE-1 or HeLa cells transfected with doxycycline-inducible LINE-1 plasmids (pDA007, pDA025, pDA027, pDA033, pDA019) and stably-selected with puromycin for 1-2 weeks. Positive controls were treated with either 6 mM hydroxyurea for 4 hours or 200 ng/mL doxorubicin for 2 hours. 100,000 cells were plated on cover slips and treated with 1000 ng/ml doxycycline for 72 hours. EdU was added for 2 hours and cells were pre-treated with 0.5% Triton X-100 for 5 min, fixed with 3.7% paraformaldehyde for 10 minutes, then permeabilized with 0.5% NP-40 for 10 minutes. EdU Click-iT reaction (ThermoFisher) was performed following manufacturer's instructions. Slides were blocked (1% BSA/PBS-Glycine, 30 minutes) and incubated with polyclonal rabbit FANCD2 (1:1000, Novus Biologicals), rabbit 53BP1 (1:500, Novus Biologicals), or mouse γH2A.X (1:1000, Millipore) for 1 hour at room temperature and then anti-rabbit Alexa Fluor 488 for FANCD2 (1:200, ThermoFisher) and anti-rabbit Alexa Fluor 488 (1:2000, ThermoFisher) and anti-mouse Alexa Fluor 555 (1:2000, ThermoFisher) for 53BP1 and γH2A.X, respectively. Slides were imaged at low magnification with the same equipment as described above with key methodological differences. […] Foci were quantified using a previously published method in MATLAB. […]

[2] = system: LINE-1(+) RPE cells; assay: Clonogenic growth assay, LINE-1(+) cells; type: cell-based
Procedure: (§2) Viability was determined by clonogenic growth or CellTiter-Glo assay (Promega, Madison, Wis.). WT RPE were assessed by clonogenic growth by transfecting 1e5 cells with 2 μg eGFP (pDA083) or 3 μg LINE-1 (pDA077) plasmid to achieve equimolar ratios. Cells were split to 10 cm growth dishes and selected with G418 24 hours later. In Tet-On assays, 500 cells were plated and doxycycline was added to activate transgene expression. For MMC sensitivity experiments, cells were treated with 100 pM, 1 nM, 10 nM, and 100 nM for 24 hours on day 2 after plating. In VE-821 sensitivity, cells were treated with 1 μM drug or DMSO vehicle throughout the duration of the experiment. For assays in CRISPR knockout cells, knockout cell pools were generated by infecting TP53^KD Tet-On RPE cells with lentivirus encoding either non-targeting control or a gene targeting guide and selecting with puromycin for 1 week. For all assays, after 10-14 days of L1 or control expression, colonies were washed with PBS and fixed (6% gluteraldehyde, 0.5% crystal violet) for 10 minutes. Plates were rinsed in water and air dried, then imaged on a flatbed scanner. Colonies with >50 cells were counted.

[3] = system: luciferase(+) cells; assay: Clonogenic growth assay, luciferase(+) control cells; type: cell-based
Procedure: as §2

[4] = system: Tet-On TP53KD cells expressing LINE-1; assay: qRT-PCR of LINE-1-induced IFN response with nucleoside reverse transcriptase inhibitors; type: cell-based; details: 5 μM for 72 hours
Procedure: 250,000 Tet-On TP53^KD cells expressing Luciferase or LINE-1 were plated in T25 flasks with 1 ng/mL doxycycline added and treated with 5 μM zalcitabine (ddC) or 5 μM didanosine (ddI) for 72 hours. Cells were lysed and RNA were extracted using Quick-RNA MicroPrep kit (Zymo Research).
cDNA was generated using the iScript kit (Biorad, Hercules, Calif.) following RNA extraction using the Quick-RNA Microprep kit (Zymo). Primers were designed using Primer3 and tested against cDNA to ensure single bands were generated in the PCR. Real-time PCR was performed for 40 cycles (98C×15 seconds, 60C×30 seconds) using SSOAdvanced 2X Master mix (Biorad) on the MyIQ cycler (Biorad). Fold-change expression was determined by the 2^−ΔΔCt method.

[5] = molecular target: PKR (Homo sapiens, UniProt P19525); details: in vitro, cited from earlier work
[6] = system: TP53KD cells; assay: γH2A.X and 53BP1 nuclear foci quantification in TP53KD cells; type: cell-based; details: data not shown
Procedure: as §1

[7] = system: RPA2; assay: Western blot of chromatin-bound RPA2; type: cell-based; details: RPE, chromatin-bound protein fractions; 1 μM
Procedure: FIGS. 6A-6G. LINE-1 activity induces replication stress. 6A) Median count of sgRNAs targeting replication stress signaling genes ATRIP and the 9-1-1 complex (HUS1 and RAD1) during the screen. Error bars indicate 95% confidence intervals. 6B) Clonogenic assay of LINE-1(+) RPE cells (induced with 1 μg/ml doxycycline) with CRISPR-knockout of ATRIP compared to non-targeting-control (NTC). Error bars indicate SEM, n=3 independent experiments. P value is calculated with an unpaired two-sided T test. 6C) Clonogenic assay of LINE-1(+) RPE cells (induced with 1 μg/ml doxycycline) with drug inhibition of ATR kinase by 1 μM VE-821 compared to vehicle (DMSO). Error bars indicate SEM, n=3 independent experiments. P value is calculated with an unpaired two-sided T test. 6D) Western blot of RPA2 occupancy on chromatin induced by LINE-1 compared to luciferase control after 72 hours of expression in RPE. Chromatin-bound protein lysates were used. […] Relative signal intensity for n=2 independent experiments ±SEM is quantified. […] Statistical significance is assessed by ANOVA (p=0.0007). […]
Cells were lysed in RIPA buffer with protease/phosphatase inhibitor (cat#5872, Cell Signaling Technology, Danvers, Mass.) or Laemmli Sample Buffer (cat#1610747, Biorad, Hercules, Calif.) by sonication. […] Quantifications were carried out using Image Studio v4.0. […]

[8] = system: FANCD2; assay: Western blot of FANCD2 monoubiquitination; type: cell-based; details: NTC-treated cells; 24-hour treatment with 1 μg/ml
Text: FIGS. 5A-5H. The Fanconi Anemia (FA) pathway is essential in p53-deficient cells. 5A) Network plot of 75 DNA repair genes identified in the screen. Edges indicate known physical interactions. This network is enriched for Fanconi anemia genes (blue nodes). 5B) Model of FA complexes responding to a DNA lesion (vertical line) encountered by a replication fork (blue line=genomic DNA; green line=nascent DNA). Genes are color coded based on the performance of their knockouts in the screen. 5C) Western blot of FANCD2 response to 24-hour treatment with 1 μg/ml mitomycin C (MMC). Cells are treated with FA member sgRNAs or non-targeting-control (NTC). FANCD2 monoubiquitination is assessed as the ratio of FANCD2-L (long) to FANCD2-S (short) band intensities (relative L:S ratio). The ratio is graphed relative to NTC, MMC-treated cells. nd=not determined. Uncropped blot is shown in the Source Data. 5D) Clonogenic growth assay of LINE-1(+) RPE cells with sgRNAs targeting the same genes as in (C). n=3 independent experiments. P value calculated with a one-sided T test. […] Quantification to the right of n=2 independent experiments ±SEM. […] Quantification below of n=2 independent experiments ±SEM. Effect of wildtype LINE-1 is statistically significant as assessed by ANOVA (p=0.0143). […] Right, quantification of FANCD2 foci in EdU+HeLa cells. […] 5H) Left, γH2A.X and 53BP1 focus quantification in EdU+TP53^KD cells. […]

[9] = system: ORF2p; assay: Western blot of ORF2p accumulation in RPE cells with doxycycline-controlled LINE-1 expression construct; type: cell-based, human
Text: (§3) FIGS. 13A and 13B. […] (Day 1 and 3 show little effect. The effect is sustained at day 10. Higher doses of the drug are toxic). The cells used are RPE cells that have a doxycycline (Dox) controlled LINE-1 expression construct. (13A.) Western blot showing ORF2p, ORF1p, and tubulin levels on day 5. Addition of Dox induces LINE-1 expression. Addition of PKRi enhances relative ORF2p expression levels. (13B.) Quantification of ORF2p expression (relative to tubulin) by Western blot as a function PKRi inhibitor dose on different days of the experiment.
Cells were lysed in RIPA buffer with protease/phosphatase inhibitor (cat#5872, Cell Signaling Technology, Danvers, Mass.) or Laemmli Sample Buffer (cat#1610747, Biorad, Hercules, Calif.) by sonication. PAGE was carried out with manufacturer-recommended buffers on 4-20% or 7.5% Mini TGX Gels (Biorad), NuPAGE 4-12% BisTris gels, or NuPAGE 3-8% Tris-Acetate gels (Thermo). Semi-dry transfers were carried out for Biorad gels or NuPAGE BisTris gels at 2.5 A for 5-15 minutes using the Trans-Blot-Turbo (Biorad). Wet transfers were carried out for Tris-Acetate gels at 30V overnight. All blocking was performed with Odyssey Blocking Buffer (Licor). Primary antibodies were incubated with membranes overnight at 4C, then infrared-conjugated secondaries (Licor) were added 1:10,000 and imaged on a Licor Odyssey Scanner. Quantifications were carried out using Image Studio v4.0. Blots were stripped with Reblot Plus Strong Solution (Millipore Sigma).
(§4) (Day 1 and 3 show little effect. The effect is sustained at day 10. Higher doses of the drug are toxic.) The finding is significant as proof-of-principle that specific cellular pathways are involved in uncoupling the expression of LINE-1 encoded proteins. As such increasing ORF2p intracellularly in tumors can cause tumor cell death.

[10] = system: RPE cells; type: cell-based
Text: as §3, §4

PKR, sequence (P19525 whole entry): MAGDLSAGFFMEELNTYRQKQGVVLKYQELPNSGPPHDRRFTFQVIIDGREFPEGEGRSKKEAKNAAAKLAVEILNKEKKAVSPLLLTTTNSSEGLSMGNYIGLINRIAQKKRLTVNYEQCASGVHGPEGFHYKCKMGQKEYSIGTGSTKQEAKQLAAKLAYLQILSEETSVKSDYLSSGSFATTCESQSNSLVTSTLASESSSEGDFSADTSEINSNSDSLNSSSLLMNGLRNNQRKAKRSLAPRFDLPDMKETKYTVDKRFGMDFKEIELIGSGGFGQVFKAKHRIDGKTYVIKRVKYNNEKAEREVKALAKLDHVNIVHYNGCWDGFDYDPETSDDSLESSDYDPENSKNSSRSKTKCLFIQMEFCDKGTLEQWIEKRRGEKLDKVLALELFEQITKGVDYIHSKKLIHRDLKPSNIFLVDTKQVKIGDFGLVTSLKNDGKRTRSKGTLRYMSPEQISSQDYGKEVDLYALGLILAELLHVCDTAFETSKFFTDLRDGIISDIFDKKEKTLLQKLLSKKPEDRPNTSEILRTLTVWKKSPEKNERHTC

Compound: NC(=O)NO [hydroxyurea]
- number of FANCD2 foci [1]: increased the number of FANCD2 foci

Compound: pladienolide B [PLA-B]
- increased sensitivity of LINE-1(+) vs luciferase(+) cells ([2]; P=0.044): 4.1 fold
- fewer colonies of LINE-1(+) cells ([2]; same PLA-B dose as for luciferase(+) cells): 27.8%
- reduction of luciferase(+) clonogenic growth ([3]; same PLA-B dose as for LINE-1(+) cells): 6.8%

Compound: CS(=O)(=O)c1ccc(-c2cnc(N)c(C(=O)Nc3ccccc3)n2)cc1 [VE-821]
- sensitization of cells to LINE-1 (ATR inhibition) ([2]; 1 μM vs DMSO vehicle): sensitized cells to LINE-1
- effect on viability in luciferase(+) cells ([3]; same dose as in LINE-1(+) cells, data not shown): no effect on viability

Compound: O=c1[nH]cnc2c1ncn2[C@H]1CC[C@@H](CO)O1 [didanosine]
- effect on LINE-1-induced IFN response [4]: attenuated the IFN response

Compound: Nc1ncc2[nH]cnc2n1 [2-AP, 2-aminopurine]
- potency relative to C16 ([5]; competes for ATP at the ATP binding site of PKR): less potent than C16

Compound: Nc1ccn([C@H]2CC[C@@H](CO)O2)c(=O)n1 [zalcitabine]
- effect on LINE-1-induced IFN response [4]: attenuated the IFN response

Compound: COc1cccc2c1C(=O)c1c(O)c3c(c(O)c1C2=O)C[C@@](O)(C(=O)CO)C[C@@H]3O[C@H]1C[C@H](N)[C@H](O)[C@H](C)O1 [doxorubicin]
- DNA damage foci (γH2A.X and 53BP1) over the cell cycle [6]: continue to accumulate

Compound: CO[C@@]12[C@H](COC(N)=O)C3=C(C(=O)C(C)=C(N)C3=O)N1C[C@@H]1N[C@@H]12 [MMC, mitomycin C]
- chromatin-bound RPA2 [7]: induced chromatin-bound RPA2
- sensitivity of LINE-1(+) cells compared to luciferase-expressing controls ([2]; dose-response clonogenic assay, 24 hours treatment): 1.9 fold
- FANCD2 monoubiquitination (FANCD2-Ub) [8]: induced FANCD2-Ub

Compound: O=C1Nc2ccc3ncsc3c2C1=Cc1cnc[nH]1 [PKRi, 6,8-dihydro-8-(1H-imidazol-5-ylmethylene)-7H-pyrrolo[2,3-g]benzothiazol-7-one]
- IC50 [5]: ~200 nM
- accumulation of ORF2p (relative to ORF1p and tubulin) ([9]; 0.1 uM, by day 6 of treatment): increases the accumulation of ORF2p
- effect on ORF2p accumulation ([9]; Day 1 and 3): little effect
- accumulation of ORF2p (relative to ORF1p and tubulin) ([9]; by day 5 of treatment, Dox-induced RPE cells): dose-dependent increases the accumulation of ORF2p
- effect on ORF2p accumulation ([9]; day 10): sustained
- toxicity [10]: toxic
